Legend:
CHO cell line = assay: Chemical fingerprinting: growth of CHO cells with cell stressors in two CD-CHO media lots (Presto Blue assay); assay type: cell-based; conditions: CD-CHO media lot 66 vs lot 28; stressor at IC50 concentration, both MSB concentrations; FIG. 2; p<0.05 (Benjamini-Hockberg)
Description: Two different batches of “CD-CHO media” (Invitrogen, Paisley, UK) were obtained. A CHO cell line was grown in these […] media for 3 passages in 30 ml shake flask culture. “Presto Blue” (Invitrogen, Paisley, UK) was mixed 1:1 with CD-CHO media and 20 ul of this was added to each well. The plate was machine shaken and subsequently incubated for 30 minutes at 37 C in a static humidified incubator. After incubation the fluorescence of the wells was measured (excitation 535 nm emission 620 nm) using a fluoroskan ascent (Thermo-Fisher, Loughborough, UK) plate reader. […] It is clear here that there were significant differences in the cell growth in these different batches of media. This was clearly significant from day 4 onwards.
To test the effect this had on the chemical fingerprint, CHO cells were sub-cultured in CD-CHO in either lot number (66) or (28) for 3 passages. Chemical fingerprinting plates were set up in duplicate to determine the growth of cells in the presence of specific cellular stressors
Using the same CHO cell line used above for the growth studies, inhibitory dose 50 (IC50) concentrations of the above chemicals were identified through growth studies. […]
After this period the level of cell growth in the plates (i.e. in the presence and absence of chemicals as mentioned above) was measured using the “Presto Blue” assay as described above. […]

[1] = tested on: reference CHO producer cell; assay: Growth of reference CHO producer cell in static microplate culture with a cell stressor in four lots of the same cell culture media; assay type: cell-based; conditions: stressor at an inhibitory concentration, each in triplicate, FIGS. 3-5
Description: FIG. 3: A reference CHO producer cell was grown in static microplate culture in the presence of cobalt chloride (CoCL2) at an inhibitory concentration and four different lots of the same cell culture media (each lot provided in triplicate).
FIG. 4: A reference CHO producer cell was grown in static microplate culture in the presence of menadione sodium bisulphite (MSB2) at an inhibitory concentration and four different lots of the same cell culture media (each lot provided in triplicate).
FIG. 5: A reference CHO producer cell was grown in static microplate culture in the presence of sodium lactate (NaLac) at an inhibitory concentration and four different lots of the same cell culture media (each lot provided in triplicate).

Structure (SMILES) | chemical response (cell growth relative to control well) compared between media lots (CHO cell line) | growth response of the cell in different lots of the cell culture media in the presence of the stressor [1]
CC1(S(=O)(=O)[O-])CC(=O)c2ccccc2C1=O.[Na+] (stereo not shown) [MSB, Menadione Sodium Bisulphite] | clearly significant difference | differences in growth response
[Cl][Co][Cl] [cobalt chloride, Cobalt chloride] | – | differences in growth response
CC(O)C(=O)[O-].[Na+] (stereo not shown) [sodium lactate, Sodium lactate] | – | differences in growth response
